From patent publication US8771953B2, “Evaluation of the potential risk of drug induced mood disturbance and suicide: use of a dedicated platform” (Biocortech, priority 2008, dated 2014)
Read-outs that look alike come from different tables or passages of the source. Marks after values point to notes of the source that are not given here.

Columns and labels:
[1] = test system: 5-HT2cR mRNA; assay: Editing profile of 5-HT2cR mRNA isoforms by CE-SSCP (nested PCR) in SH-SY5Y cells; enzyme activity indexes worked out from the profile; assay type: cell-based, human; details: for activation at 10 µM: Homo sapiens
[2] = test system: ADAR1a mRNA; assay: Q-PCR of ADAR1a mRNA expression in SH-SY5Y cells; assay type: cell-based; details: Homo sapiens, 10 micromolar, 24 hours, read-out: QPCR: RNA expresion (% of variation) ADAR1a
Source text: ADAR1a RNA Expression in SH-SY5Y cells (Q-PCR, Applied TaqMan probes ref: Hs 01020780_m1).
(§1) The SH-SY5Y Human neuroblastoma cell line was purchased from ECACC (EC94030304 from the European Collection of Cell Cultures (ECACC)). The cell line SH-SY5Y is a thrice-cloned neuroblastoma, originally from SK-N-SH and first reported in 1978. A neuroblast-like subclone of SK-N-SH, named SH-SY, was subcloned as SH-SY5, which was subcloned again as SH-SY5Y (Biedler J L et al. Cancer Res. 1978; 38:3751-7). Cells were cultured in high glucose D-MEM medium (Sigma, ref D6546) supplemented with 10% dialysed FCS (PAA, ref. A15-507, lot A50708-0050), 2 mM Glutamine (Sigma, G7513) and a 1× mix of Antibiotic-Antimycotic Stabilized (Sigma, ref. A5955) at 37° C. under a humidified atmosphere of 5% CO2. The day preceeding drug or hIFNα treatment, SH-SY5Y cells were plated in 6-well plates at a density of 10^6 cells/well. One 6-well plate was used per experimental condition (concentration or treatment duration). The day after plating, culture medium was removed and cells were incubated for 24 hours with a 10 μM solution of the compound to be tested molecules or a 1000 IU/ml solution of hIFNα (PBL biomedical laboratories). For hIFNα dose-response experiment cells were incubated with 1, 10, 100, and 1000 IU/ml of hIFNα solutions. For hIFNα time-course experiment cells were treated for 24, 48, or 72 hours with a 1000 IU/ml solution of hIFNα. After the different treatments, cells were directly lysed in RLT lysis buffer and total RNA purified according to manufacturer's protocol (Qiagen, RNeasy Plus mini kit, ref. 74134). Total RNA was then reverse transcribed with Thermoscript RT-PCR system Plus Taq (Invitrogen, 11146-032) and the resulting cDNA used for CE-SSCP and quantitative real-time PCR.
(§2) In order to quantify levels of 5-HT2CR, ADAR1 and ADAR2 mRNA expression in SH-SY5Y cells or in prefrontal cortex, total blood and skin of Balb/cJ mice, first-strand cDNA was synthesized by reverse transcription and subjected to TaqMan quantitative real-time PCR analysis (Applied Biosystems). All probes and primers used for the quantitative PCRs were from Applied Bio systems (Gene Expression Assays, Assay-On-Demand) (see Table 1, Applied Biosystems primers and probes references): […]
(§3) Human GAPDH (product no. 4326317E; Applied Biosystems) or mouse GAPDH (product no. 4352339E; Applied Biosystems) were included in each multiplex PCR as an internal control. Real-time PCR and subsequent analysis were performed with a 48-well block StepOne RT PCR system (Applied Biosystems). Quantification of target gene expression in all samples was normalized to GAPDH expression by the equation Ct (target)−Ct (GAPDH)=ΔCt, where Ct is the threshold cycle number. The mean ΔCt value of samples from untreated mice or cells was determined and used as a reference point for the samples corresponding to treated animals or cells. Differences between untreated and treated animals or cells, including individual variation were calculated by the equation (ΔCt (individual treated samples)−ΔCt (mean of untreated samples)=ΔΔCt). Changes in target gene expression (n-fold) in each sample were calculated by 2^−ΔΔCt, from which the means and standard deviations (SD) were derived.
(§4) The SH-SY5Y Human neuroblastoma cell line was purchased from ECACC. Cells were cultured in high glucose D-MEM medium (Sigma, ref. D6546) supplemented with 10% dialysed FCS (PAA, ref. A15-507, lot A50708-0050), 2 mM Glutamine (Sigma, ref. G7513) and a 1× mix of Antibiotic-Antimycotic Stabilized (Sigma, ref. A5955) at 37° C. under a humidified atmosphere of 5% CO2. The day preceeding hIFNα or drug treatment, SH-SY5Y cells were plated in 6-well plates (Corning, Multiwell Plate, 6 well, Corning CellBIND Surface, ref 3335) at a density of 5; 7 or 9·10^6 cells/well for a 72-, 48- or 24-hour treatment respectively. Six or eight wells of 6-well plates were used per experimental condition (control, concentration or treatment duration).

[3] = test system: ADAR1b mRNA; assay: Q-PCR of ADAR1b mRNA expression in SH-SY5Y cells; assay type: cell-based; details: Homo sapiens, 10 micromolar, 24 hours, read-out: QPCR: RNA expresion (% of variation) ADAR1b
Procedure: as §1, §2, §3, §4

[4] = test system: ADAR2 mRNA; assay: Q-PCR of ADAR2 mRNA expression in SH-SY5Y cells; assay type: cell-based; details: Homo sapiens, 10 micromolar, 24 hours, read-out: QPCR: RNA expresion (% of variation) ADAR2
Procedure: as §1, §2, §3, §4

[5] = SH-SY5Y, 10 micromolar, 24 hours, read-out: ENZYME ACTIVIY INDEX (% of variation) ADAR1
[6] = SH-SY5Y, 10 micromolar, 24 hours, read-out: ENZYME ACTIVIY INDEX (% of variation) ADAR1 + 2
[7] = SH-SY5Y, 10 micromolar, 24 hours, read-out: ENZYME ACTIVIY INDEX (% of variation) ADAR2
[8] = SH-SY5Y, 10 micromolar, 24 hours, read-out: ENZYME ACTIVIY INDEX (% of variation) ADARI
[9] = SH-SY5Y, 10 micromolar, 24 hours, read-out: ENZYME ACTIVIY INDEX (% of variation) ADARII
[10] = SH-SY5Y, 10 micromolar, 24 hours, read-out: ENZYME ACTIVIY INDEX (% of variation) NE
[11] = SH-SY5Y, 24 h, read-out: ENZYME ACTIVIY INDEX (% of variation) ADAR1
[12] = SH-SY5Y, 24 h, read-out: ENZYME ACTIVIY INDEX (% of variation) ADAR1 + 2
[13] = SH-SY5Y, 24 h, read-out: ENZYME ACTIVIY INDEX (% of variation) ADAR2
[14] = SH-SY5Y, 24 h, read-out: ENZYME ACTIVIY INDEX (% of variation) ADARI
[15] = SH-SY5Y, 24 h, read-out: ENZYME ACTIVIY INDEX (% of variation) ADARII
[16] = SH-SY5Y, 24 h, read-out: ENZYME ACTIVIY INDEX (% of variation) NE

Row | Compound | activation at 10 µM [1, 5] | activation at 10 µM [1, 6] | activation at 10 µM [1, 7] | activation at 10 µM [1, 8] | activation at 10 µM [1, 9] | activation at 10 µM [1, 10] | % change in ADAR1a mRNA expression at 10 µM [2] | percent change in mRNA expression at 10 µM [3] | percent change in ADAR2 mRNA expression at 10 µM [4] | activation at 10 µM [1, 11] | activation at 10 µM [1, 12] | activation at 10 µM [1, 13] | activation at 10 µM [1, 14] | activation at 10 µM [1, 15] | activation at 10 µM [1, 16] | alteration of 5-HT2cR mRNA editing compared with that observed after INFα treatment (component analysis, FIG. 4) ([1]; SH-SY5Y cells, 48 hours, 10 μM) | ENZYME ACTIVIY INDEX (% of variation) EC ([1]; SH-SY5Y, 10 micromolar, 24 hours)
1 | Nc1nnc(-c2cccc(Cl)c2Cl)c(N)n1 [Lamotrigine] | 5.9% | -24.6% | -23% | 0.1% | -24.3% | 0.9% | -26% | -26% | -32% |  |  |  |  |  |  |  | 
2 | CC(C)C[C@H](CN)CC(=O)O [Pregabalin] |  |  |  |  |  |  | -33% | -43% | -36% | 2.5% | -8.7% | -6.2% | 0.4% | -8.2% | -0.1% |  | 
3 | CC(NC(C)(C)C)C(=O)c1cccc(Cl)c1 (centres unmarked) [Bupropion] | -16.3% | 42.6% | 68.9% | -8.9% | 34.7% | 5.3% | -66% | -51% | -40% |  |  |  |  |  |  |  | 
4 | O=c1n(CCCN2CCN(c3cccc(Cl)c3)CC2)nc2ccccn12 [Trazodone] | 0% | 89.3% | 28.4% | 12.9% | 77.7% | 13.4% | -60% | -40% | 5% |  |  |  |  |  |  |  | 
5 | CCNC(C)Cc1cccc(C(F)(F)F)c1 (centres unmarked) [Fenfluramine] |  |  |  |  |  |  | 7% | 23% | 27% | 4.2% | -43.3% | 0.7% | -4.8% | -34.8% | 4.5% |  | 
6 | NC(=O)OCC(COC(N)=O)c1ccccc1 [Felbamate] | 6.3% | -13.9% | -24.6% | 2.4% | -16% | -1.2% | -13% | -1% | 1% |  |  |  |  |  |  |  | 
7 | Cc1c(C(=O)NN2CCCCC2)nn(-c2ccc(Cl)cc2Cl)c1-c1ccc(Cl)cc1 [Rimonabant] | 13.3% | 2.4% | -3.7% | 11.3% | 1.2% | -10.4% | -43% | -32% | -7% |  |  |  |  |  |  | similarly altered | 
8 | CN(C)CCCC1(c2ccc(F)cc2)OCc2cc(C#N)ccc21 (centres unmarked) [Citalopram] | -5.7% | 70.2% | 70.1% | 5.3% | 70.2% | -7.4% | -18% | -2% | 64% |  |  |  |  |  |  |  | 
9 | CC[C@@H](C(N)=O)N1CCCC1=O [Levetiracetam] | 12% | -36.6% | 10.9% | 2.8% | -27.4% | -3.1% | -9% | -11% | -17% |  |  |  |  |  |  |  | 
10 | NC(=O)N1c2ccccc2CC(=O)c2ccccc21 [Oxcarbazepine] | 1.1% | -25.6% | -25.9% | -3.9% | -25.6% | 4.8% | -28% | -18% | -15% |  |  |  |  |  |  |  | −65.2* %
11 | NC(=O)N1c2ccccc2C=Cc2ccccc21 [Carbamazepine] | -3% | 38.8% | 26% | 3% | 36.4% | -3.8% | 52% | -62% | -42% |  |  |  |  |  |  |  | 
12 | CNCCCN1c2ccccc2CCc2ccccc21 [Desipramine] |  |  |  |  |  |  | 29% | -38% | -12% | -8.6% | 5.7% | 15.5% | -6.6% | 7.5% | 5.9% |  | 
13 | NS(=O)(=O)Cc1noc2ccccc12 [Zonisamide] | 11.9% | 9.7% | -7.8% | 11.5% | 6.3% | -10.5% | -24% | -19% | -23% |  |  |  |  |  |  |  | 
14 | CC1(C)O[C@@H]2[C@@H](CO[C@@]3(COS(N)(=O)=O)OC(C)(C)O[C@@H]23)O1 [Topiramate] | 14.4% | -19.5% | 11.4% | 8% | -13.5% | -8% | -44% | -46% | -60% |  |  |  |  |  |  |  | 
